Measured values: ChEMBL document CHEMBL4800727 (2021)

What was measured:
[1] = molecular target: T1, 5-hydroxytryptamine receptor 2B (Homo sapiens, UniProt P41595); assay: GPCRScan assay: inhibition of 5-HT2B; parameters: radioligand conc. used [nm] 1.0 – 2.0, parental cells stable HEK
[2] = molecular target: Inhibitor of nuclear factor kappa-B kinase subunit alpha (Homo sapiens) (UniProt O15111); assay: conserved helix-loop-helix ubiquitous kinase Millipore kinase panel; conditions: Compound concentration 10.0 uM
[3] = molecular target: Serine/threonine-protein kinase DCLK2 (Homo sapiens) (UniProt Q8N568); assay: doublecortin-like kinase 2 Millipore kinase panel; conditions: Compound concentration 10.0 uM
Serine/threonine-protein kinase DCLK2 (Homo sapiens), sequence (Q8N568 whole entry): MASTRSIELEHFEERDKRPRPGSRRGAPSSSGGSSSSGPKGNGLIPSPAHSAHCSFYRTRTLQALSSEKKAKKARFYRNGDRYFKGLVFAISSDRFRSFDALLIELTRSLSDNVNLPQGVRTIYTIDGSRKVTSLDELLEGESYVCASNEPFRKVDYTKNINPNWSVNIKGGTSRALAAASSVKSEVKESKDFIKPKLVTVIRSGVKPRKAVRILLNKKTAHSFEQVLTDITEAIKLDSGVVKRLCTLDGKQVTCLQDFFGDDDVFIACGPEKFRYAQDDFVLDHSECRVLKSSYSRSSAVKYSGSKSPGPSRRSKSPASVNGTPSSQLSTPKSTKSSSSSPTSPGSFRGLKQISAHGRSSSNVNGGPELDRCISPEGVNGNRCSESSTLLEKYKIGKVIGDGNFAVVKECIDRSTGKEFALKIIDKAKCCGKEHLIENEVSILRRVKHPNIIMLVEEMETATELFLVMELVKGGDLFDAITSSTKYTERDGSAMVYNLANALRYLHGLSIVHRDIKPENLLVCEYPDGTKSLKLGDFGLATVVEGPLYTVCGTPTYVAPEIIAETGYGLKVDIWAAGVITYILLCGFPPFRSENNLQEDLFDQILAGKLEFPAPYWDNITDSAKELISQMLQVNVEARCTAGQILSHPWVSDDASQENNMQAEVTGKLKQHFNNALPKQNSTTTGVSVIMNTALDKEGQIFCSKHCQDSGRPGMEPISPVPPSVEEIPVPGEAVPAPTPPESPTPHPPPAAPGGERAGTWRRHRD

[4] = molecular target: Ephrin type-A receptor 7 (Homo sapiens) (UniProt Q15375); assay: EPH receptor A7 Millipore kinase panel; conditions: Compound concentration 10.0 uM
Ephrin type-A receptor 7 (Homo sapiens), sequence (Q15375 28-998 limits assumed): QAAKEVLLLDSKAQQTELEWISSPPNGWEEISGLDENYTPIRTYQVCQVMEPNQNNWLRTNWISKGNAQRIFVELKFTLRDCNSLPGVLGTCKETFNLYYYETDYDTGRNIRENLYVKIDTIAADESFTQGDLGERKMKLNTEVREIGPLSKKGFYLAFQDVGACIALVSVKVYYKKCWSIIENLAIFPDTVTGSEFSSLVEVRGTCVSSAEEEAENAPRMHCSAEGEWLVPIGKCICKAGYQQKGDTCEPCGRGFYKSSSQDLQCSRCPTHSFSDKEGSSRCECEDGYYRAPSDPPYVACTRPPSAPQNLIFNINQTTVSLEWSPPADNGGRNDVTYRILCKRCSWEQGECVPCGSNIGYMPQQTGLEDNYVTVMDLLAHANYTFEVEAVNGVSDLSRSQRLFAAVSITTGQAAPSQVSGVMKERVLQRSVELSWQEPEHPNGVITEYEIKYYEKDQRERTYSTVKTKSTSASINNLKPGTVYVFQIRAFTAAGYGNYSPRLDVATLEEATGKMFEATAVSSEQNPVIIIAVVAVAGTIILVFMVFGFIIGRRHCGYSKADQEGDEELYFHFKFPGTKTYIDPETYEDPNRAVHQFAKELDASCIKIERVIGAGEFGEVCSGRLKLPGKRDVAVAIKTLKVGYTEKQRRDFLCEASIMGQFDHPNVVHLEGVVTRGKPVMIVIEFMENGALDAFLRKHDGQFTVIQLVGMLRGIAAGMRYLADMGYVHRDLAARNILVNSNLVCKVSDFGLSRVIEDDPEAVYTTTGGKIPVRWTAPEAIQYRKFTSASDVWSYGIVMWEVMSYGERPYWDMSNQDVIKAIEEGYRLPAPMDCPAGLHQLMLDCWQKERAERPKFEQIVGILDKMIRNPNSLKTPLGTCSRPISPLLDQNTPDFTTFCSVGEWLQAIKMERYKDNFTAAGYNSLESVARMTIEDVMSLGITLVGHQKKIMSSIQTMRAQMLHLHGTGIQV

[5] = molecular target: Eukaryotic elongation factor 2 kinase (Homo sapiens) (UniProt O00418); assay: eukaryotic elongation factor-2 kinase Millipore kinase panel; conditions: Compound concentration 10.0 uM
[6] = molecular target: Fibroblast growth factor receptor 4 (Homo sapiens) (UniProt P22455); assay: fibroblast growth factor receptor 4 Millipore kinase panel; conditions: Compound concentration 10.0 uM
[7] = molecular target: Tyrosine-protein kinase Fyn (Homo sapiens) (UniProt P06241); assay: FYN oncogene related to SRC, FGR, YES Millipore kinase panel; conditions: Compound concentration 10.0 uM
Tyrosine-protein kinase Fyn (Homo sapiens), sequence (P06241 2-537 limits assumed): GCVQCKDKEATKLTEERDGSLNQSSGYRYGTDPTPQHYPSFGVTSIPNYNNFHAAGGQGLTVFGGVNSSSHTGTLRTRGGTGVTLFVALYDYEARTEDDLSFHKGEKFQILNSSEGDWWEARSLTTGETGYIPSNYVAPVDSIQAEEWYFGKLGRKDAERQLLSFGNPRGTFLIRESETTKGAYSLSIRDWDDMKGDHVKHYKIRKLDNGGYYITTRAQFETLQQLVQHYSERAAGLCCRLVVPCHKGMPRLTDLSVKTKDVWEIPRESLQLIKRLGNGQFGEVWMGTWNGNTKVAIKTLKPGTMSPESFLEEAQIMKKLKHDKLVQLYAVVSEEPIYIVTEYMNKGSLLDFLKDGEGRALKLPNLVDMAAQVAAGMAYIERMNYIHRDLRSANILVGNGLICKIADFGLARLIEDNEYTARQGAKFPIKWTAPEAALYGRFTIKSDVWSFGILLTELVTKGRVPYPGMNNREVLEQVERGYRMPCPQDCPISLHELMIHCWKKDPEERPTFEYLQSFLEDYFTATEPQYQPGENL

[8] = molecular target: Insulin receptor-related protein (Homo sapiens) (UniProt P14616); assay: insulin receptor-related receptor Millipore kinase panel; conditions: Compound concentration 10.0 uM
[9] = molecular target: Interleukin-1 receptor-associated kinase 4 (Homo sapiens) (UniProt Q9NWZ3); assay: interleukin-1 receptor-associated kinase 4 Millipore kinase panel; conditions: Compound concentration 10.0 uM
[10] = molecular target: Serine/threonine-protein kinase mTOR (Homo sapiens) (UniProt P42345); assay: mechanistic target of rapamycin Millipore kinase panel; conditions: Compound concentration 10.0 uM
[11] = molecular target: Mitogen-activated protein kinase 10 (Homo sapiens) (UniProt P53779); assay: mitogen-activated protein kinase 10 Millipore kinase panel; conditions: Compound concentration 10.0 uM
Mitogen-activated protein kinase 10 (Homo sapiens), sequence (P53779 whole entry): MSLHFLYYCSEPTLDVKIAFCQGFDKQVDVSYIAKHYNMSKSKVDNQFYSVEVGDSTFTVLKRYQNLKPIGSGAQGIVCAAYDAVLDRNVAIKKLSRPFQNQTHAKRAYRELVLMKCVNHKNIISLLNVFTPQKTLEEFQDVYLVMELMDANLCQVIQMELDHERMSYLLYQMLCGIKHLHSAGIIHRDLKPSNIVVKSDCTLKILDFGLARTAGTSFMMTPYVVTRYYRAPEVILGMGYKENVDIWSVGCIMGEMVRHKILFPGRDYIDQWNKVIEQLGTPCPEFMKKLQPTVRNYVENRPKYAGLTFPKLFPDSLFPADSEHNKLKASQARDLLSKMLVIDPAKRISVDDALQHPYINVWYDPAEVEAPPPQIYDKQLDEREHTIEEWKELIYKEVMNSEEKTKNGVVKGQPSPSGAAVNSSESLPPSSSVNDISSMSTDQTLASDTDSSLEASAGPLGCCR

[12] = molecular target: Mitogen-activated protein kinase 12 (Homo sapiens) (UniProt P53778); assay: mitogen-activated protein kinase 12 Millipore kinase panel; conditions: Compound concentration 10.0 uM
[13] = molecular target: Mitogen-activated protein kinase 9 (Homo sapiens) (UniProt P45984); assay: mitogen-activated protein kinase 9 Millipore kinase panel; conditions: Compound concentration 10.0 uM
[14] = molecular target: Mitogen-activated protein kinase kinase kinase 7 (Homo sapiens) (UniProt O43318); assay: mitogen-activated protein kinase kinase kinase 7 Millipore kinase panel; conditions: Compound concentration 10.0 uM
[15] = molecular target: Phosphatidylinositol 4,5-bisphosphate 3-kinase catalytic subunit beta isoform (Homo sapiens) (UniProt P42338); assay: phosphoinositide-3-kinase, catalytic, beta polypeptide Millipore kinase panel; conditions: Compound concentration 10.0 uM
[16] = molecular target: Protein kinase C gamma type (Homo sapiens) (UniProt P05129); assay: protein kinase C, gamma Millipore kinase panel; conditions: Compound concentration 10.0 uM
[17] = molecular target: Protein kinase C zeta type (Homo sapiens) (UniProt Q05513); assay: protein kinase C, zeta Millipore kinase panel; conditions: Compound concentration 10.0 uM
[18] = molecular target: Serine/threonine-protein kinase D1 (Homo sapiens) (UniProt Q15139); assay: protein kinase D1 Millipore kinase panel; conditions: Compound concentration 10.0 uM
[19] = molecular target: Protein-tyrosine kinase 2-beta (Homo sapiens) (UniProt Q14289); assay: PTK2B protein tyrosine kinase 2 beta Millipore kinase panel; conditions: Compound concentration 10.0 uM
[20] = molecular target: Ribosomal protein S6 kinase alpha-1 (Homo sapiens) (UniProt Q15418); assay: ribosomal protein S6 kinase, 90kDa, polypeptide 1 Millipore kinase panel; conditions: Compound concentration 10.0 uM
[21] = molecular target: Serine/threonine-protein kinase 24 (Homo sapiens) (UniProt Q9Y6E0); assay: serine/threonine kinase 24 Millipore kinase panel; conditions: Compound concentration 10.0 uM
Serine/threonine-protein kinase 24 (Homo sapiens), sequence (Q9Y6E0 whole entry, looked up): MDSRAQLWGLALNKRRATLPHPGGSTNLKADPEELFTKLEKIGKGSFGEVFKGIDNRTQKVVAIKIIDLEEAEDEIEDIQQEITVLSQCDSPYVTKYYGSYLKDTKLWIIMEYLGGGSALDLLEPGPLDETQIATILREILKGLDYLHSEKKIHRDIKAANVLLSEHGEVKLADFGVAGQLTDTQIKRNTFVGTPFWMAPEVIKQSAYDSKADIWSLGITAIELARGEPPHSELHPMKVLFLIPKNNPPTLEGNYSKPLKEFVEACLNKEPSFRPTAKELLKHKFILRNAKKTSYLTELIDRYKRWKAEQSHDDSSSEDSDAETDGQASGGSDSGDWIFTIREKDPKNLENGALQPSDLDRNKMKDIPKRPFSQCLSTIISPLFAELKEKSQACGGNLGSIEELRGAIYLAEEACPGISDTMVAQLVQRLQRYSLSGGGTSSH

[22] = molecular target: Serine/threonine-protein kinase TBK1 (Homo sapiens) (UniProt Q9UHD2); assay: TANK-binding kinase 1 Millipore kinase panel; conditions: Compound concentration 10.0 uM
[23] = molecular target: Serine/threonine-protein kinase VRK2 (Homo sapiens) (UniProt Q86Y07); assay: vaccinia related kinase 2 Millipore kinase panel; conditions: Compound concentration 10.0 uM
[24] = molecular target: Rod cGMP-specific 3',5'-cyclic phosphodiesterase subunit alpha (Homo sapiens, UniProt P16499); assay: hPDE6AB PDE scan
Rod cGMP-specific 3',5'-cyclic phosphodiesterase subunit alpha, sequence (P16499 whole entry): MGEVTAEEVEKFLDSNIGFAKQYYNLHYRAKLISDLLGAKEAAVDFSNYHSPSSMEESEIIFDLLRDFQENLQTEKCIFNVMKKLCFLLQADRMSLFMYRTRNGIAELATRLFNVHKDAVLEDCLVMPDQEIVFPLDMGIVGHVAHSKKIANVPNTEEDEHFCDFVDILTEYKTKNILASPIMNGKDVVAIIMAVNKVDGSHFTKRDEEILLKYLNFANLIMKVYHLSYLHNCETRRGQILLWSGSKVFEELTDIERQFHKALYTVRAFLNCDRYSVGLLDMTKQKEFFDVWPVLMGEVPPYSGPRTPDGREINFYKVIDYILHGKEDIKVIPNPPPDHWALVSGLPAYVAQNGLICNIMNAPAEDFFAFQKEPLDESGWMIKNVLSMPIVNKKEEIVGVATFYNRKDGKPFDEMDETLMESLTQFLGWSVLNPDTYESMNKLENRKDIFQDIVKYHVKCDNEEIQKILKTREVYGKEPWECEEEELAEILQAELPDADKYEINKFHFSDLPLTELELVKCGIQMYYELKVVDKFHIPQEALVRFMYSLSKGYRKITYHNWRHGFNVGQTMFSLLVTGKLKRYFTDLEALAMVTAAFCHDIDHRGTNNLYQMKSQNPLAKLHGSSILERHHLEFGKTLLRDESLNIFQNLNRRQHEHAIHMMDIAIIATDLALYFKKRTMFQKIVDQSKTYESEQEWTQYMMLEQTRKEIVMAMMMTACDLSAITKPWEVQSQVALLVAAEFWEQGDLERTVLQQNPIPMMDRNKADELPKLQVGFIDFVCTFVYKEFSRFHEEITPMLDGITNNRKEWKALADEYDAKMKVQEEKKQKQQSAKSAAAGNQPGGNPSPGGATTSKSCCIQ

[25] = molecular target: High affinity cAMP-specific and IBMX-insensitive 3',5'-cyclic phosphodiesterase 8A (Homo sapiens, UniProt O60658); assay: hPDE8A1 PDE scan
[26] = molecular target: Alpha-2A adrenergic receptor (Rattus norvegicus) (UniProt P22909); assay: rAa2 Cerep panel; conditions: Compound concentration 10.0 uM
[27] = molecular target: T2, Alpha-2B adrenergic receptor (Homo sapiens) (UniProt P18089); assay: hAb2 Cerep panel; conditions: Compound concentration 10.0 uM
T2 sequence (whole entry): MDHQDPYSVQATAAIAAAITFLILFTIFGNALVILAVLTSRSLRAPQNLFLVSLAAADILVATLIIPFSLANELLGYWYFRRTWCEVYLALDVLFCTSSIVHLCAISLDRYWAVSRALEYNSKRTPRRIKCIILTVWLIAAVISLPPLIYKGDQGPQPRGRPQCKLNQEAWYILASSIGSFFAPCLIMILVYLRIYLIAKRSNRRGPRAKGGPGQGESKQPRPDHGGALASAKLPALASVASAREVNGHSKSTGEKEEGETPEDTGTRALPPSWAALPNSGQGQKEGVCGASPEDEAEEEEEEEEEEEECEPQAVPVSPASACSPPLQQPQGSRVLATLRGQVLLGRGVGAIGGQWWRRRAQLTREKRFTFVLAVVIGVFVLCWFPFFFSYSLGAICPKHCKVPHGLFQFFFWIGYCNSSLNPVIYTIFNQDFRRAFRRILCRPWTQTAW

[28] = molecular target: Endothelin-1 receptor (Homo sapiens) (UniProt P25101); assay: hETA Cerep panel; conditions: Compound concentration 10.0 uM
Endothelin-1 receptor (Homo sapiens), sequence (P25101 whole entry): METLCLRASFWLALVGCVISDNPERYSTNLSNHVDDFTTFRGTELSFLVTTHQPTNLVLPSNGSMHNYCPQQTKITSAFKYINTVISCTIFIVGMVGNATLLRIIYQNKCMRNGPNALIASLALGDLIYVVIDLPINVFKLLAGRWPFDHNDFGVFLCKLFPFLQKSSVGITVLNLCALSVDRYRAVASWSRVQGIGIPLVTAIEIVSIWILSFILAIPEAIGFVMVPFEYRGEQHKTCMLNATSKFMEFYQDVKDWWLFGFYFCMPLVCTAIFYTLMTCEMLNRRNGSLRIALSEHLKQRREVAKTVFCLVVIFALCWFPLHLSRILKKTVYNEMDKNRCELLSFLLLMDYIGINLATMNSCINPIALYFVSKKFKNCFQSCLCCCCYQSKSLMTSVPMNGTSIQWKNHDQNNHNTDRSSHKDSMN

Rattus norvegicus [29] = organism: Rattus norvegicus; assay: rSLC6/GABA Cerep panel; conditions: Compound concentration 10.0 uM
[30] = molecular target: T3, Muscarinic acetylcholine receptor M1 (Homo sapiens) (UniProt P11229); assay: hM1 Cerep panel; conditions: Compound concentration 10.0 uM
T3 sequence (whole entry): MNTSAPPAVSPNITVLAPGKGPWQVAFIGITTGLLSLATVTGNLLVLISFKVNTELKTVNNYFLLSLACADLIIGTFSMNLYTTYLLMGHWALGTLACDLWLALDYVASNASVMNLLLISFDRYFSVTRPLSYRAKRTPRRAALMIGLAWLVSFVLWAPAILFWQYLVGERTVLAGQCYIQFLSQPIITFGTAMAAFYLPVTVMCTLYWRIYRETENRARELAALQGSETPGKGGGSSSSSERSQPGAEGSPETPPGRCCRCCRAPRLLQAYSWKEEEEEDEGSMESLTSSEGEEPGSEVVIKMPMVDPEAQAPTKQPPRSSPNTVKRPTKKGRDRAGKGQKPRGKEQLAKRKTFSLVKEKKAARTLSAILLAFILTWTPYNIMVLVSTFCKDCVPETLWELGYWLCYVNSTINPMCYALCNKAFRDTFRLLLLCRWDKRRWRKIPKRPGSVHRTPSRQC

[31] = molecular target: Neuromedin-K receptor (Homo sapiens) (UniProt P29371); assay: hNK3 Cerep panel; conditions: Compound concentration 10.0 uM
[32] = molecular target: 5-hydroxytryptamine receptor 5A (Homo sapiens) (UniProt P47898); assay: h5HT5A Cerep panel; conditions: Compound concentration 10.0 uM
[33] = molecular target: Vasopressin V1a receptor (Homo sapiens) (UniProt P37288); assay: hV1a Cerep panel; conditions: Compound concentration 10.0 uM
Rattus norvegicus [34] = organism: Rattus norvegicus; assay: rK_ATP potassium channel Cerep panel; conditions: Compound concentration 10.0 uM
[35] = molecular target: Androgen receptor (Homo sapiens) (UniProt P10275); assay: hAR Cerep panel; conditions: Compound concentration 10.0 uM
[36] = molecular target: T1, 5-hydroxytryptamine receptor 2B; assay: h5HT2B Cerep panel; conditions: Compound concentration 10.0 uM
Homo sapiens = organism: Homo sapiens; assay: hSigma Cerep panel; conditions: Compound concentration 10.0 uM
[37] = molecular target: 3',5'-cyclic-AMP phosphodiesterase 4D (Homo sapiens, UniProt Q08499); assay: hPDE4D2 Cerep panel; conditions: Compound concentration 10.0 uM

T1 sequence (P41595 whole entry): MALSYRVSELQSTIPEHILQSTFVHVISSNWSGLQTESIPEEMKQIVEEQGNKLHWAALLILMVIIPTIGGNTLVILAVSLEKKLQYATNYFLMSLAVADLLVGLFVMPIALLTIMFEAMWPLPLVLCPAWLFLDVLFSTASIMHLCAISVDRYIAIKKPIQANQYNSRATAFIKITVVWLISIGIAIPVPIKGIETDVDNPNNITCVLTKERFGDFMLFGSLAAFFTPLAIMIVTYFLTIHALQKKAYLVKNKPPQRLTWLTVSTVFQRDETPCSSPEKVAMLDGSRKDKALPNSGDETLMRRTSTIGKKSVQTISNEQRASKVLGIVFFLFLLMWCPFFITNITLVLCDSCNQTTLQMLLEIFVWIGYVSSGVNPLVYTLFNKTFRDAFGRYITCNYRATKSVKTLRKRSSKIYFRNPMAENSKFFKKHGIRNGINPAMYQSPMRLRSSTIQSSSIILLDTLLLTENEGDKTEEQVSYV

COCCc1ccc(-c2c(C)nc3c(N4CCOCC4)ccnn23)cn1 [JNJ-42396302]
Ki ([1]; read-out: Ki): 2.29 µM
Ki ([1]; read-out: pKi (converted)): 2.24 µM
inhibition [2]: -3%
inhibition [3]: -6%
inhibition [4]: 0%
inhibition [5]: -2%
inhibition [6]: -7%
inhibition [7]: 3%
inhibition [8]: 10%
inhibition [9]: -1%
inhibition [10]: 1%
inhibition [11]: 18%
inhibition [12]: 2%
inhibition [13]: 0%
inhibition [14]: 5%
inhibition [15]: 1%
inhibition [16]: -4%
inhibition [17]: 5%
inhibition [18]: -5%
inhibition [19]: -4%
inhibition [20]: 9%
inhibition [21]: 9%
inhibition [22]: -3%
inhibition [23]: -4%
Ki [24]: 85 µM
Ki [25]: 41 µM
effect [26]: 5.2%
effect [27]: -4.45%
effect [28]: 5.55%
effect (Rattus norvegicus [29]): -6%
effect [30]: 2.2%
effect [31]: -8.65%
effect [32]: 5.7%
effect [33]: 8.9%
effect (Rattus norvegicus [34]): 2.9%
effect [35]: -13.8%
effect [36]: 2.4%
effect (Homo sapiens): 1.55%
effect [37]: 27.3%
